For one test, the target named is T1, Kdr (Homo sapiens, UniProt P35968).
T1 construct: The kinase domain of KDR is expressed as GST-fusion protein using the baculovirus system; made in house
As to the kind of experiment: Inhibition of KDR protein tyrosine kinase in vitro. The class given is biochemical. The following applies: GST-fused KDR kinase domain, polyGluTyr(4:1), 8 μM ATP; read-out: IC50 range class, inhibition of Kdr in vitro. Here is the method: Inhibition of the enzyme activity of KDR protein tyrosine kinase can be determined as follows: The kinase domain of KDR is expressed as GST-fusion protein using the baculovirus system. The in vitro kinase assay is performed in 96-well plates using the recombinant GST-fused kinase domains expressed in baculovirus and purified over glutathione-Sepharose. ^33P-ATP (Amersham) is used as the phosphate donor, and the polyGluTyr(4:1) peptide (Sigma) is used as acceptor. The buffer is composed as follows: 29 mM Tris-HCl, pH 7.5; 10 mM MgCl2, 1 μM MnCl2, 8 μM ATP, 0.2 μCi ^33P-ATP, 8 μg/ml polyGluTyr. The reaction os carried out in a volume of 30 μl for 10 min at room temperature in the presence of either 1% DMSO or the test compound of formula I at the required concentration in 1% DMSO […]. The reaction is stopped by the addition of ethylenediaminetetraacetic acid to a final concentration of 60 mM. The assay mixture is then transferred onto a Immobilon-PVF membrane (Millipore), which is subsequently washed four times with 0.05% H3PO4 and once with ethanol. After drying, […] of Microscint Cocktail (Packard) is added and scintillation counting is performed (Hewlett-Packard Top Count). IC50 values are calculated by linear regression analysis of the percentage inhibition of each test compound in duplicate, at three concentrations (usually 0.01, 0.1 and 1 μM or 0.1, 1 and 10 μM).

In a further test the target is T2, c-Met (Homo sapiens, UniProt P08581).
T2 construct: c-Met cytoplasmic domain (amino acids 969 to C-terminus); made in house; host or cells: baculovirus / Sf9 cells
As to the kind of experiment: Inhibition of c-Met kinase (33P-ATP filter assay). It counts as biochemical. The following applies: GST-c-Met cytoplasmic domain, poly(EY) substrate; read-out: IC50 range class, inhibition of c-Met. The text has this: Compounds of the formula I, for example, are able to inhibit c-Met kinase as mentioned already in the introduction. Using the sequence disclosed by Chan et al. (see Chan, A M-L, King H W S, Tempest P R, Deakin E A, Cooper C S, Brookes P. Primary structure of the met protein tyrosine kinase domain. Oncogene 1987; 12:229-233), a construct with this sequence, after hooking to a GST tag, was cloned into baculovirus and expressed in Sf9 cells. After partial purification by affinity chromatography on GST agarose resulting in a >90% pure preparation (SDS-PAGE), the kinase activity of this construct is used for inhibition assays using the compounds of formula I. The quality of the purified kinase preparations is highly reproducible: 9 batches of c-Met gives an average specific activity of 32.3±5.7 nmol/mg·min.
For inhibition studies, the following experimental protocol is used:
In vitro protein kinase assays are performed in 96-well plates. The amount of enzyme used in kinase assays and the incubation time for the kinase reaction are adjusted so that maximally 25% (in routine experiments <10%) of the substrate ATP are consumed.
Test compounds of the formula I are first dissolved in DMSO at a concentration of 1-10 mM (stock solution) and then further diluted with water/3% DMSO as required so that the final DMSO concentration in the assay is 1%.
The assay components are mixed in the following order: • 10 μl 3×compound (in 3% DMSO) • 10 μl 3×assay mix (MgCl2/MnCl2/ATP/^33P-ATP/poly(EY)) • 10 μl 3×enzyme dilution
Assays are incubated for 15 min (in special cases up to 60 min) at ambient temperature, reactions terminated by addition of 10 μl 0.25 M EDTA pH 7, then 20 μl transferred to a Millipore Immobilon^P membrane (previously soaked for 5 min with methanol, rinsed with water, then soaked for 5 min with 0.5% H3PO4 and mounted on vacuum manifold) with disconnected vacuum source. After spotting all samples, vacuum is connected and each well rinsed with 200 μl 0.5% H3PO4. Membranes are removed and washed 4× on shaker with 0.5% H3PO4, once with methanol. Membranes are counted after drying at ambient temperature, mounting in Packard TopCount 96-well frame, and addition of 10 μl/well of the scintillator Microscint™ (Packard).
IC50 values are calculated by logarithmic regression analysis of the percentage inhibition of each compound at 4 concentrations (usually 3- or 10-fold dilution series starting at 10 μM). In each experiment, the actual inhibition by reference compound is used for normalization of IC50 values to the basis of an average value of the reference inhibitor: Normalized IC50=measured IC50·average ref. IC50/measured ref. IC50 Example: • Reference inhibitor in experiment 0.4 μM, average 0.3 μM • Test compound in experiment 1.0 μM, normalization: 1.0·0.3/0.4=0.75 μM
For example, staurosporine or a synthetic staurosporine derivative are used as reference compounds.

The next test has as its target CDK1. As to the kind of experiment: Inhibition of CDK1 (p34cdc2/cyclin Bcdc13 kinase, histone H1 substrate). The following applies: read-out: IC50 range class, inhibition of CDK1 in vitro. It counts as biochemical, starfish. On the procedure:
Starfish oocytes are induced into the M phase with 10 μM 1-methyl-adenine, frozen in liquid nitrogen and stored at −80° C. The ooctyes are homogenized and centrifuged, as described in D. Arlon et al., Cell 55, 371-378 (1988) and V. Rialet und L. Meijer, Anticancer Res. 11, 1581-1590 (1991), as required. For purification of the p34^cdc2/cyclin B^cdc13 kinase, the supernatant of the oocytes is introduced onto p9^CKShs Sepharose grains produced from recombinant human protein p9^CKShs, as described in L. Azzi et al., Eur. J. Biochem. 203, 353-360 (1992). After 30 minutes at 4° C. under constant rotation, the grains are washed thoroughly and the active p34^cdc2/cyclin B^cdc13 kinase is eluted with free protein p9^CKShs (3 mg/ml). The kinase eluted is tested as described in L. Meijer et al., EMBO J. 8, 2275-2282 (1989) and EMBO J. 10, 1545-1554 (1991), using histone H1 as the substrate. In this test, the compounds of the formula I and their pharmaceutically acceptable salts have an inhibiting concentration IC50 [μmol/l] of 0.01 to 10, usually of 0.05 to 1.

The next test has as its target T3, Abl (Homo sapiens, UniProt P00519).
T3 construct: The His-tagged kinase domain of c-Abl is cloned and expressed in the baculovirus/Sf9 system; His; made in house; host or cells: baculovirus / Sf9 cells
T3 sequence (P00519 242-493 limits assumed): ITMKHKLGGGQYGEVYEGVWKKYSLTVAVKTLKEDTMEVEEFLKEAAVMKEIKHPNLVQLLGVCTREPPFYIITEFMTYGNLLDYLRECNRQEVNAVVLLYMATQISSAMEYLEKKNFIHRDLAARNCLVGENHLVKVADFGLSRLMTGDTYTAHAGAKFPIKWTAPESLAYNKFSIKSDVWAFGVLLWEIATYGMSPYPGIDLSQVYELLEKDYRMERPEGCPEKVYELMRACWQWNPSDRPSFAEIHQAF
As to the kind of experiment: Inhibition of c-Abl protein-tyrosine kinase (filter binding assay). It counts as biochemical. The following applies: His-tagged c-Abl kinase domain, Poly-AEKY, 5 μM ATP; read-out: IC50 range class, inhibition of Abl in vitro. Here is the method: An in vitro enzyme assay is performed in 96-well plates as a filter binding assay as described by Geissler et al. in Cancer Res. 1992; 52:4492-4498, with the following modifications. The His-tagged kinase domain of c-Abl is cloned and expressed in the baculovirus/Sf9 system as described by Bhat et al. in J. Biol. Chem. 1997; 272:16170-16175. A protein of 37 kD (c-Abl kinase) is purified by a two-step procedure over a Cobalt metal chelate column followed by an anion exchange column with a yield of 1-2 mg/L of Sf9 cells (Bhat et al., reference cited). The purity of the c-Abl kinase is >90% as judged by SDS-PAGE after Coomassie blue staining. The assay contains (total volume of 30 μL): c-Abl kinase (50 ng), 20 mM Tris.HCl, pH 7.5, 10 mM MgCl2, 10 μM Na3VO4, 1 mM DTT and 0.06 μCi/assay [γ^33 P]-ATP (5 μM ATP) using 30 μg/mL poly-Ala,Glu,Lys,Tyr-6:2:5:1 (Poly-AEKY, Sigma P1152) in the presence of 1% DMSO. Reactions are terminated by adding 10 μL of 250 mM EDTA and 30 μL of the reaction mixture is transferred on to Immobilon-PVDF membrane (Millipore, Bedford, Mass., USA) previously soaked for 5 min with methanol, rinsed with water, then soaked for 5 min with 0.5% H3PO4 and mounted on vacuum manifold with disconnected vacuum source. After spotting all samples, vacuum is connected and each well rinsed with 200 μL 0.5% H3PO4. Membranes are removed and washed on a shaker with 0.5% H3PO4 (4 times) and once with ethanol. Membranes are counted after drying at ambient temperature, mounting in Packard TopCount 96-well frame, and addition of 10 μL/well of Microscint™ (Packard).

Each structure is given as a SMILES string.

As a reminder, the IC50 is the concentration at which inhibition is half-maximal.

T1 sequence (P35968 834-1162 limits assumed): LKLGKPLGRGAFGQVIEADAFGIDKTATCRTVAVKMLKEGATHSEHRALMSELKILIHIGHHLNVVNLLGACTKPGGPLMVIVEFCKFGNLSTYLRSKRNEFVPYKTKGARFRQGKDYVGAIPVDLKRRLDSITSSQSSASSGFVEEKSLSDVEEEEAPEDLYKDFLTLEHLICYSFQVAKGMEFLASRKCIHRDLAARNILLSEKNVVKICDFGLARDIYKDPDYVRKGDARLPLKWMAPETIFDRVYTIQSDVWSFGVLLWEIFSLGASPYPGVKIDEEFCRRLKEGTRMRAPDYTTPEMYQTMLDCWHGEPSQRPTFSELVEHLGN
T2 sequence (P08581 969-1390 limits assumed): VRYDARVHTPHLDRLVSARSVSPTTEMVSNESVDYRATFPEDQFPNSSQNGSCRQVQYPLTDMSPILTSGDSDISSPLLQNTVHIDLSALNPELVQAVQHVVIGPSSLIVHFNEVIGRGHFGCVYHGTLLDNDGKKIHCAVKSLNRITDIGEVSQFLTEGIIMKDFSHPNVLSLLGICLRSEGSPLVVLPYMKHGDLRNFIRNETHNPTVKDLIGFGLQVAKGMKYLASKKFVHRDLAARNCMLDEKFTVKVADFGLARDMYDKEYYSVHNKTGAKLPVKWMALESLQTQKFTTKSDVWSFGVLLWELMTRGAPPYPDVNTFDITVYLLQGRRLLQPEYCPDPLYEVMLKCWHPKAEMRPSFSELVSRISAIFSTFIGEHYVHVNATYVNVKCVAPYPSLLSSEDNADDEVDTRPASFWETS

Regarding `COc1ccc2ncc3ncn(-c4ccccc4)c3c2c1` [Example 48, 8-Methoxy-1-phenyl-1H-imidazo[4,5-]quinoline], the IC50 on Kdr was in the range of 1 to 2 µM.
As to `CCc1ccc2ncc3ncn(-c4ccccc4F)c3c2c1` [Example 50, 8-Ethyl-1-(2-fluoro-phenyl)-1H-imidazo[4,5-c]quinoline], the IC50 at c-Met and on CDK1 was not above 0.5 µM throughout.
In the case of `Nc1cccc(-n2cnc3cnc4ccc(-c5ccccc5)cc4c32)c1` [Example 58, 3-(8-Phenyl-imidazo[4,5-c]quinolin-1-yl)-phenylamine], the IC50 on Kdr and at Abl was not above 0.5 µM each time.
In the case of `OCc1cccc(-n2cnc3cnc4ccc(-c5ccccc5)cc4c32)c1` [Example 62, [3-(8-Phenyl-imidazo[4,5-c]quinolin-1-yl)-phenyl]-methanol], the IC50 on Kdr and on Abl was not above 0.5 µM each time.
Consider `O=c1[nH]c2cnc3ccc(Br)cc3c2n1-c1ccccc1Cl` [Example 93, 8-Bromo-1-(2-chloro-phenyl)-1,3-dihydro-imidazo[4,5-c]quinolin-2-one], for which the figures for the IC50 at c-Met and at Kdr were not above 0.5 µM and 0.5 to 1 µM, respectively.
For the compound `Cn1c(=O)n(-c2ccccc2Cl)c2c3cc(Br)ccc3ncc21` [Example 104, 8-Bromo-1-(2-chloro-phenyl)-3-methyl-1,3-dihydro-imidazo[4,5-c]quinolin-2-one], the IC50 at c-Met was not above 0.5 µM; at CDK1 it was 1 to 2 µM.
`CCn1c(=O)n(-c2ccccc2Cl)c2c3cc(Cl)ccc3ncc21` [Example 108, 8-Chloro-1-(2-chloro-phenyl)-3-ethyl-1,3-dihydro-imidazo[4,5-c]quinolin-2-one]: the IC50 on c-Met is 0.5 to 1 µM; on CDK1, not above 0.5 µM; on Kdr it was not above 0.5 µM.
For the compound `CCn1c(=O)n(-c2ccccc2Cl)c2c3cc(Br)ccc3ncc21` [Example 113, 8-Bromo-1-(2-chloro-phenyl)-3-ethyl-1,3-dihydro-imidazo[4,5-c]quinolin-2-one], the IC50 is not above 0.5 µM on c-Met, 1 to 2 µM at CDK1 and 1 to 2 µM on Kdr.
Consider `CC(C)n1c(=O)n(-c2ccccc2Cl)c2c3cc(Br)ccc3ncc21` [Example 114, 8-Bromo-1-(2-chloro-phenyl)-3-isopropyl-1,3-dihydro-imidazo[4,5-c]quinolin-2-one], for which the IC50 at c-Met was 0.5 to 1 µM; on CDK1, not above 0.5 µM; on Kdr it was not above 0.5 µM.
`O=c1n(CC2CC2)c2cnc3ccc(Cl)cc3c2n1-c1ccccc1Cl` [Example 128, 8-Chloro-1-(2-chloro-phenyl)-3-(cyclopropyl-methyl)-1,3-dihydro-imidazo[4,5-c]quinolin-2-one]: the IC50 on CDK1 was in the range of 0.5 to 1 µM.
Consider `COc1cccc(-c2ccc3ncc4ncn(-c5ccccc5Cl)c4c3c2)c1` [Example 140, 1-(2-Chloro-phenyl)-8-(3-methoxy-phenyl)-1H-imidazo[4,5-c]quinoline], for which the IC50 at Kdr and on Abl was not above 0.5 µM throughout.
As for `COc1ccccc1-c1ccc2ncc3ncn(-c4ccccc4Cl)c3c2c1` [Example 142, 1-(2-Chloro-phenyl)-8-(2-methoxy-phenyl)-1H-imidazo[4,5-c]quinoline], the IC50 at Abl is not above 0.5 µM.

The values are drawn from patent US7998972B2, “1H-imidazo[4,5-c]quinoline derivatives in the treatment of protein kinase dependent diseases” (Novartis AG, priority 2002, dated 2011).
